From ChEMBL document CHEMBL1150092, “Isolation and characterization of cytotoxic and antibacterial tetrasaccharide glycosides from Ipomoea stans” (1995)
Values after ≈ are worked out from the molar mass of the structure shown.

What was measured:
Staphylococcus aureus = assay: Antimicrobial activity against Staphylococcus aureus ATCC 6538; type: functional, organism-based
Bacillus subtilis = assay: Antimicrobial activity against Bacillus subtilis ATCC 6633; type: functional, organism-based
P388 = assay: Cytotoxicity against mouse P388 cells; type: functional; conditions: read-out: ED50 (the source's name)

NYSTATIN
MIC (Staphylococcus aureus): 8 µg/mL
MIC (Bacillus subtilis): 16 µg/mL

CCCCC[C@H]1CCCCCCCCCC(=O)O[C@H]2[C@H](O)[C@@H](CO)O[C@@H](O[C@H]3[C@H](O1)O[C@H](C)[C@H](O)[C@@H]3O)[C@@H]2O[C@@H]1O[C@@H](C)[C@H](OC(=O)[C@@H](C)CC)[C@@H](O[C@@H]2O[C@@H](C)[C@H](O)[C@@H](O)[C@H]2O)[C@H]1OC(=O)[C@@H](C)CC [TRICOLORIN A]
EC50 (P388): 2.2 µg/mL (≈ 2.15 µM)
